Experimental data from patent US20040054182A1, “1h-imidazopyridine derivatives” (priority 2000, published 2004).
Counter-ions that a name gives are not always drawn.

Columns and labels:
human IL-1 beta = assay: Inhibitory action against IL-1 beta production in LPS-stimulated human PBMCs (sandwich ELISA of culture supernatant); type: cell-based; settings: 16 hours
Protocol: (§1) As an example of the excellent effects of the compounds of the present invention, experimental results of inhibitory actions against production of TNF-alpha and IL-1 beta in human cells will be shown below.
(§2) About 50 mL of whole blood was collected from each adult healthy volunteer by venepuncture, and poured into plastic tubes which containing 170 micro L of Novo-heparin 1000 (produced by Novo-Nordisk). Then, PBMCs (Peripheral Blood Mononuclear Cells) were separated using LeucoPREP™ (produced by Becton Dickinson) lymphocyte separation tube, and cultured with RPMI-1640 medium (produced by Nissui Pharmaceutical Co.) containing 2 mM L-glutamine (produced by Life Technologies), 2.5 U/mL penicillin-2.5 micro g/mL streptomycin solution (produced by Life Technologies) supplemented with 10% fetal calf serum (produced by Intergen Company) at 1×10^6 cells/mL.
(§3) Test compounds were dissolved in distilled ultra-pure water, dimethyl sulfoxide or 0.1 M hydrochloric acid at 20 micro M as far as possible, and then sequentially diluted with saline and used.
(§4) A hundred and eighty micro L of prepared human PBMCs were added to each well of 96-well plate (MicroTest III™ tissue culture plate; produced by Becton Dickinson) containing 10 micro L of adequate concentrations solution of test compounds. Then 30 minutes after, 10 micro L of 20 micro g/mL lipopolysaccharide (LPS) was added to each well, and cells in the well plate were covered with plastic lid and incubated for 16 hours at 37° C. in an atmosphere of 5% CO2.
(§5) The levels of human TNF-alpha and human IL-1 beta in culture supernatant were measured by constructed sandwich enzyme-linked immunosorbent assay method. Ninety-six-well microtiter plates were coated with diluted anti-cytokine antibody (capture/first-antibody). After washing the wells, the culture supernatant was diluted appropriately, added to each well and incubated. Then detection/second-antibody against cytokine and HRP (horseradish peroxidase)-conjugated/third-antibody against detection-antibody were added to wells sequentially, with interposed washing processes. After the final washing process, reaction of calorimetric quantification was started by addition of tetramethylbenzidine solution (produced by DAKO) to each well. After quenching the reaction by addition of 0.5 M sulfuric acid, optical absorbance of each well at 450 nm was measured by M-VmaxTM kinetic microplate reader (produced by Molecular Devices). Concentrations of cytokines were determined by Softmax™ (produced by Molecular Devices) quantification software in comparison with calibration curve derived from corresponding recombinant cytokines as standard. For measurement of human TNF-alpha, monoclonal mouse anti-human TNF-alpha (produced by ENDOGEN), polyclonal rabbit anti-human TNF-alpha (produced by Pharma Biotechnologie Hannover), peroxidase-conjugated donkey anti-rabbit IgG antibodies (produced by Jackson ImmunoRes. Labs.), and recombinant human TNF-alpha (produced by INTERGEN Company) were used for the capture-, detection-, HRP-conjugated-antibodies and the standard for calibration curve, respectively. […]

human TNF-alpha = assay: Inhibitory action against TNF-alpha production in LPS-stimulated human PBMCs (sandwich ELISA of culture supernatant); type: cell-based; settings: 16 hours
Protocol: as §1, §2, §3, §4, §5

[1] = administered concentration 0.01 micro mol/L
[2] = administered concentration 0.03 micro mol/L
[3] = administered concentration 0.10 micro mol/L
[4] = administered concentration 0.3 micro mol/L
[5] = administered concentration 1.0 micro mol/L

| melting point | SMILES | further results |
| --- | --- | --- |
| 280 to 282.5 °C (dec.) | FC(F)(F)c1nc2ccccc2c2c1nc(-c1ccc[nH]1)n2CCC1CCNCC1 [Example 64, 1-[2-(4-Piperidyl)ethyl]-2-(2-pyrrolyl)-4-trifluoromethyl-1H-imidazo[4,5-c]-quinoline] |  |
| 187 to 188 °C | FC(F)(F)c1nc2ccccc2c2c1nc(-c1ccccc1)n2CCN1CCNCC1 [Example 99, 2-Phenyl-1-[2-(1-piperazinyl)ethyl]-4-trifluoromethyl-1H-imidazo[4,5-c]-quinoline] |  |
| 174.5 to 175.5 °C | NCCn1c(-c2ccccc2)nc2c(C(F)(F)F)nc3ccccc3c21 [Example 108, 1-(2-Aminoethyl)-2-phenyl-4-trifluoromethyl-1H-imidazo[4,5-c]quinoline] |  |
| 195.5 to 196.5 °C | NCCn1c(-c2ccc[nH]2)nc2c(C(F)(F)F)nc3ccccc3c21 [Example 109, 1-(2-Aminoethyl)-2-(2-pyrrolyl)-4-trifluoromethyl-1H-imidazo[4,5-c]quinoline] |  |
| 234 to 235 °C | O=C(CCl)NCCn1c(-c2ccc[nH]2)nc2c(C(F)(F)F)nc3ccccc3c21 [Example 125, 2-chloro-N-[2-[2-(2-pyrrolyl)-4-trifluoromethyl-1H-imidazo-[4,5-c]quinolin-1-yl]ethyl]acetamide] |  |
| 208 to 209 °C | CNCC(=O)NCCn1c(-c2ccccc2)nc2c(C(F)(F)F)nc3ccccc3c21 [Example 127, 2-Methylamino-N-[2-(2-phenyl-4-trifluoromethyl-1H-imidazo[4,5-c]quinolin-1-yl)-ethyl]acetamide] |  |
| 176 to 177 °C (dec.) | NCC(=O)NCCn1c(-c2ccc[nH]2)nc2c(C(F)(F)F)nc3ccccc3c21.O=C(O)/C=C/C(=O)O [Example 131, 2-Amino-N-[2-[2-(2-pyrrolyl)-4-trifluoromethyl-1H-imidazo[4,5-c]quinolin-1-yl]ethyl]-acetamide fumarate] |  |

Further lines, the molecule ahead of its results:

| SMILES | melting point | further results |
| --- | --- | --- |
| FC(F)(F)c1nc2ccccc2c2c1nc(-c1ccc[nH]1)n2CCC1CNCCO1 (centres unmarked) (as salt: trifluoroacetate) [Example 102, 1-[2-(2-Morpholinyl)ethyl]-2-(2-pyrrolyl)-4-trifluoromethyl-1H-imidazo[4,5-c]-quinoline] | 254 to 258 °C (dec.) |  |
| c1c[nH]c(-c2nc3c(C4CC4)nc4ccccc4c3n2CCC2CCNCC2)c1 (hydrate or solvate) [Example 111, 4-Cyclopropyl-1-[2-(4-piperidyl)ethyl]-2-(2-pyrrolyl)-1H-imidazo[4,5-c]quinoline] | 212 to 213.5 °C |  |
| c1ccc(-c2nc3ccccc3c3c2nc(-c2ccc[nH]2)n3CCC2CCNCC2)cc1 (hydrate or solvate) [Example 113, 4-Phenyl-1-[2-(4-piperidyl)ethyl]-2-(2-pyrrolyl)-1H-imidazo[4,5-c]quinoline] | 268 to 270 °C |  |
| FC(F)(F)c1nc2ccccc2c2c1nc(-c1nccs1)n2CCC1CCNCC1 [Example 70, 1-[2-(4-Piperidyl)ethyl]-2-(2-thiazolyl)-4-trifluoromethyl-1H-imidazo[4,5-c]-quinoline] | 199 to 200 °C |  |
| FC(F)(F)c1nc2cc(Cl)ccc2c2c1nc(-c1nccs1)n2CCC1CCNCC1 [Example 74, 7-Chloro-1-[2-(4-piperidyl)ethyl]-2-(2-thiazolyl)-4-trifluoromethyl-1H-imidazo-[4,5-c]quinoline] | 232.5 to 234 °C (dec.) |  |
| FC(F)(F)c1nc2ccccc2c2c1nc(-c1ccc[nH]1)n2CCC1CNCCO1 (centres unmarked) [Example 102, 1-[2-(2-Morpholinyl)ethyl]-2-(2-pyrrolyl)-4-trifluoromethyl-1H-imidazo[4,5-c]-quinoline] |  | Inhibitory action against IL-1 beta production in human cells (inhibitory percentages of cytokine production) (human IL-1 beta; [1]): 81%; Inhibitory action against IL-1 beta production in human cells (inhibitory percentages of cytokine production) (human IL-1 beta; [2]): 67%; Inhibitory action against IL-1 beta production in human cells (inhibitory percentages of cytokine production) (human IL-1 beta; [3]): 48%; Inhibitory action against IL-1 beta production in human cells (inhibitory percentages of cytokine production) (human IL-1 beta; [4]): 0%; Inhibitory action against IL-1 beta production in human cells (inhibitory percentages of cytokine production) (human IL-1 beta; [5]): 0%; Inhibitory action against TNF-alpha production in human cells (inhibitory percentages of cytokine production) (human TNF-alpha; [1]): 96%; Inhibitory action against TNF-alpha production in human cells (inhibitory percentages of cytokine production) (human TNF-alpha; [2]): 84%; Inhibitory action against TNF-alpha production in human cells (inhibitory percentages of cytokine production) (human TNF-alpha; [3]): 25%; Inhibitory action against TNF-alpha production in human cells (inhibitory percentages of cytokine production) (human TNF-alpha; [4]): 23%; Inhibitory action against TNF-alpha production in human cells (inhibitory percentages of cytokine production) (human TNF-alpha; [5]): 27% |
| c1ccc(-c2nc3ccccc3c3c2nc(-c2ccccc2)n3CCC2CCNCC2)cc1 [Example 112, 2,4-Diphenyl-1-[2-(4-piperidyl)ethyl]-1H-imidazo[4,5-c]quinoline] | 209 to 211 °C |  |
| O=C(CCl)NCCn1c(-c2ccccc2)nc2c(C(F)(F)F)nc3ccccc3c21 [Example 124, 2-chloro-N-[2-(2-phenyl-4-trifluoromethyl-1H-imidazo[4,5-c]quinolin-1-yl)ethyl]acetamide] | 230.5 to 231.5 °C |  |
| CN(C)CC(=O)NCCn1c(-c2ccccc2)nc2c(C(F)(F)F)nc3ccccc3c21.O=C(O)/C=C/C(=O)O [Example 128, 2-Dimethylamino-N-[2-(2-phenyl-4-trifluoromethyl-1H-imidazo[4,5-c]quinolin-1-yl)-ethyl]acetamide fumarate] | 207.5 to 208 °C |  |
| CN(C)CC(=O)NCCn1c(-c2ccc[nH]2)nc2c(C(F)(F)F)nc3ccccc3c21.O=C(O)/C=C/C(=O)O [Example 129, 2-Dimethylamino-N-[2-[2-(2-pyrrolyl)-4-trifluoromethyl-1H-imidazo[4,5-c]quinolin-1-yl]ethyl]acetamide fumarate] | 219 to 222 °C (dec.) |  |
